Consider 2 compounds from patent US20020022617A1, “Methods for increasing nitric oxide synthase activity” (American Home Products Corporation, priority 2000, published 2002).

The assay has as its system aortic rings of ovariectomized rats. Briefly: Basal NO release in isolated aortic rings of treated ovariectomized rats (phenylephrine curves before and after L-NAME). The assay is classed as in vivo, Sprage-Dawley rats. As to conditions: for response of vessels to L-NAME after washout: 1 mg/kg/day by gastric gavage, 200 μM L-NAME, vehicle treated group had a significantly smaller response; for response of the vessels compared among intact, estradiol and TSE-424 treated groups / difference from vehicle treated group (basal NO release, separation of curves before and after L-NAME): 1 mg/kg/day; for response of the vessels compared among intact, estradiol and TSE-424 treated groups: all phenylephrine concentrations (except 0.01 μM phenylephrine TSE-424 treated group); for difference from vehicle treated group (basal NO release, separation of curves before and after L-NAME): at the 10 and 100 μM phenylephrine concentrations, p<0.05. On the procedure: Sprage-Dawley rats (240-260 grams) were divided into 4 groups: (1) Normal non-ovariectomized (intact); (2) Ovariectomized (ovex) vehicle treated; (3) Ovariectomized 17-β estradiol treated (1 mg/kg/day); and (4) Ovariectomized TSE-424 treated (1 mg/kg/day). All animals were ovariectomized approximately 3 weeks prior to treatment. Each received 1 mg/kg/day of either 17-β estradiol sulfate or TSE-424 suspended in distilled, deionized water with 1% tween-80 by gastric gavage. Vehicle treated animals received an appropriate volume of the vehicle used in the drug treated groups.
Animals were euthanized by CO2 inhalation and exsanguination. Their thoracic aortas were rapidly removed and placed in 37° C. physiological solution with the following composition (mM): NaCl (54.7), KCl (5.0), NaHCO3 (25.0), MgCl2.2H2O (2.5), D-glucose (11.8) and CaCl2 (0.2) gassed with […] for a final pH of 7.4. The advantitia was removed from the outer surface and the vessel was cut into 2-3 mm wide rings. Rings were suspended in at 10 mL tissue bath with one end attached to the bottom of the bath and the other to a force transducer. A resting tension of 1 gram was placed on the rings.
After equilibration, the rings were exposed to increasing concentrations of phenylephrine (10^−8 to 10^−4 M) and the tension recorded. Baths were then rinsed 3 times with fresh buffer. After washout, 200 μM N′-nitro-L-arginine methyl ester hydrochloride (L-NAME) was added to the tissue bath and equilibrated for 30 minutes. The phenylephrine concentration response curve was then repeated.
Contraction amplitudes at each concentration of phenylephrine were normalized to the maximum phenylephrine-induced contraction before the addition of L-NAME and graphed. The amount of basal NO released was proportional to the degree of separation between the 2 curves before and after L-NAME. Statistical differences were at the p<0.05 level of significance using a repeated measures “Test of Effect Slices (SAS)” analysis of variance.

As for `Cc1c(-c2ccc(O)cc2)n(Cc2ccc(OCCN3CCCCCC3)cc2)c2ccc(O)cc12` [TSE-424, 1-[4-(2-Azepan-1yl-ethoxy)-benzyl]-2-(4-hydroxy-phenyl)-3-methyl-1H-indol-5-ol], the “response of vessels to L-NAME after washout” value is “substantial contraction”; the “response of the vessels compared among intact, estradiol and TSE-424 treated groups” value is “indistinguishable”; the “difference from vehicle treated group (basal NO release, separation of curves before and after L-NAME)” value is reported as “significantly different”.
In the same order, the values of `C[C@]12CC[C@@H]3c4ccc(O)cc4CC[C@H]3[C@@H]1CC[C@@H]2O` [estradiol, 17-β estradiol] are “substantial contraction”, “indistinguishable” and “significantly different”.
